# Results taken from ChEMBL document CHEMBL1152529, “Synthesis, antifungal, haemolytic and cytotoxic activities of a series of bis(alkylpyridinium)alkanes” (Bioorg Med Chem, 2009).
# pIC50: −log10 of the molar value. Activity calls are given as the source filed them. The rule behind the calls is not given here.
# Experiments:
# [1] = Solubility at 50 uM; assay type: physicochemical
# Candida albicans = assay: Antifungal activity against Candida albicans ATCC 10231 after 48 to 72 hrs by broth microdilution method; assay type: functional; settings: Candida albicans, ATCC 10231; read-out: MIC
# Cryptococcus neoformans = assay: Antifungal activity against Cryptococcus neoformans ATCC 90112 after 48 to 72 hrs by broth microdilution method; assay type: functional; settings: Cryptococcus neoformans, ATCC 90112; read-out: MIC
# [2] = system: Cryptococcus neoformans var. grubii H99; assay: Inhibition of lysophospholipid fatty acyl chain hydrolysis activity of Cryptococcus neoformans var. grubii H99 PLB assessed as formation of radiolabeled free fatty acid at 0.25 to 250 uM at pH 4 by radiometric assay
# [3] = system: Cryptococcus neoformans var. grubii H99; assay: Inhibition of lysophospholipase acyltransferase activity of Cryptococcus neoformans var. grubii H99 PLB assessed as formation of radiolabeled dipalmitoyl phosphatidylcholine at 0.25 to 250 uM at pH 4 by radiometric assay
# MDCK = assay: Cytotoxicity against MDCK cells after 3 hrs by MTS assay; assay type: cell-based; settings: Canis lupus familiaris
# A549 = assay: Cytotoxicity against human A549 cells after 3 hrs by MTS assay; assay type: cell-based; settings: A549, 3 h
# [4] = Cytotoxicity against human erythrocytes assessed as hemolysis after 1 hr; assay type: cell-based, Erythrocyte
# [5] = target: Phospholipase A2, major isoenzyme (Sus scrofa, UniProt P00592); assay: Inhibition of porcine pancreatic PLA2 after 1 hr by radiometric method
# Sequence of Phospholipase A2, major isoenzyme (P00592 whole entry): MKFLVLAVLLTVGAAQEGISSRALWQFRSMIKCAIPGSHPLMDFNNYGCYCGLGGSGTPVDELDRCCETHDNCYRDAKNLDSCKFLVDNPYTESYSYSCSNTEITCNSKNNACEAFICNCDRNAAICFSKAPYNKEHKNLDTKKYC
# [6] = Inhibition of phospholipid fatty acyl chain hydrolysis activity of Cryptococcus neoformans var. grubii H99 PLB assessed as formation of radiolabeled free fatty acid at pH 4 by radiometric assay
Structure (SMILES),solubility [1],MIC (Candida albicans),MIC (Cryptococcus neoformans),Activity [2],Activity [3],pIC50 (MDCK),pIC50 (A549),HC50 at 1 h [4],pIC50 [5],pIC50 [6]
CN1CCC[C@H]1c1ccc[n+](CCCCCCCCCCCC[n+]2cccc([C@@H]3CCCN3C)c2)c1.[Br-].[Br-],Insoluble,> 50 µM,> 50 µM,,,,,,,
CCCCCc1cc[n+](CCCCCCCCCCCC[n+]2ccc(CCCCC)cc2)cc1,,,,inactive,inactive,,,,,
CC(C)c1cc[n+](CCCCCCCCCCCC[n+]2ccc(C(C)C)cc2)cc1,,22 µM,44 µM,,,< 3.46,< 3.46,,,
CC(C)(C)CCc1cc[n+](CCCCCCCCCCCC[n+]2ccc(CCC(C)(C)C)cc2)cc1,,5.5 µM,2.7 µM,,,3.87,3.98,> 350 µM,,
c1ccc(CCCc2cc[n+](CCCCCCCCCCCC[n+]3ccc(CCCc4ccccc4)cc3)cc2)cc1,,2.7 µM,2.7 µM,inactive,inactive,4.19,4.26,67 µM,3.98,5.30
CC(C)CCCc1cc[n+](CCCCCCCCCCCC[n+]2ccc(CCCC(C)C)cc2)cc1,,2.7 µM,2.7 µM,inactive,inactive,4.21,4.27,227 µM,< 3.60,4.96
c1cc[n+](CCCCCCCCCCCC[n+]2ccccc2)cc1,,44 µM,88 µM,inactive,inactive,,,> 350 µM,< 3.60,< 3.60
CCCCCCc1cc[n+](CCCCCCCCCCCC[n+]2ccc(CCCCCC)cc2)cc1,,1.4 µM,2.7 µM,inactive,inactive,4.21,4.32,129 µM,< 3.60,5.22
CCCCc1cc[n+](CCCCCCCCCCCC[n+]2ccc(CCCC)cc2)cc1,,5.5 µM,11 µM,,,3.82,3.67,> 350 µM,,
CCc1ccc[n+](CCCCCCCCCCCC[n+]2cccc(CC)c2)c1,,44 µM,88 µM,,,,,,,
C=CCCCc1cc[n+](CCCCCCCCCCCC[n+]2ccc(CCCC=C)cc2)cc1,,2.7 µM,5.5 µM,inactive,inactive,< 3.46,< 3.46,> 350 µM,4.25,4.33
OCCCc1cc[n+](CCCCCCCCCCCC[n+]2ccc(CCCO)cc2)cc1,,88 µM,88 µM,inactive,inactive,< 3.46,< 3.46,> 350 µM,< 3.60,< 3.60
c1ccc(Cc2cc[n+](CCCCCCCCCCCC[n+]3ccc(Cc4ccccc4)cc3)cc2)cc1,,11 µM,22 µM,,,,,,,
OCc1cc[n+](CCCCCCCCCCCC[n+]2ccc(CO)cc2)cc1,,88 µM,88 µM,,,,,,,
